This is an account of results in US20080275058A1, “N-Substituted-1H-Quinoline-2,4-Diones, Preparation Method Thereof, And Pharmaceutical Composition Containing The Same” (KOREA RESEARCH INSTITUTE OF CHEMICAL TECHNOLOGY, priority 2005, published 2008).

Broadly, the IC50 is the point on the concentration scale where inhibition reaches its midpoint.

Series [1] deals with T1, 5-HT2c (Homo sapiens, UniProt P28335).
T1 construct: purchased Euroscreen/BioSignal Packard Inc
T1 sequence (P28335 33-458): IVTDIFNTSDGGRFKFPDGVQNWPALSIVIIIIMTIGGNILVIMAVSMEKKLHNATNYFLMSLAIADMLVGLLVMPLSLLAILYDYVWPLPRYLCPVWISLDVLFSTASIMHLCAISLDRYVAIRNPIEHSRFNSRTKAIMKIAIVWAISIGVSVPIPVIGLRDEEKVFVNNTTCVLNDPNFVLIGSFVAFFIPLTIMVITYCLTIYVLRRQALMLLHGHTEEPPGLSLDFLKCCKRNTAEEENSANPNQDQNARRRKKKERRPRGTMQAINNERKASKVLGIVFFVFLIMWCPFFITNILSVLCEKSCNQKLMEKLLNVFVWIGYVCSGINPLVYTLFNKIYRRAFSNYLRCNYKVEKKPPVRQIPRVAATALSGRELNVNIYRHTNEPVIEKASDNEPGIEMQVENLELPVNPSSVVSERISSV
The series can be described thus: Radioligand binding, 5-HT2c ([3H]Mesulergine). To be noted: Table 4; [3H]Mesulergine 1 nM; read-out: Binding affinity, IC50 (nM) 5-HT2c.

For series [2], the target named is T2, hD2L (Homo sapiens, UniProt P14416).
T2 construct: purchased BioSignal Packard Inc., Montreal, Canada
Briefly: Radioligand binding, dopamine D2 ([3H]spiperone). To be noted: Table 4; [3H]spiperone 1 nM; read-out: Binding affinity, IC50 (nM) D2. The procedure, abridged: (§1)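 IC50 values come from nonlinear fits of three displacement experiments, each using 7-8 test concentrations in duplicate. D2L and D3 membranes were labelled with 1 nM [3H]spiperone, and D4.2 with 0.06 nM [3H]YM-09151-2. All assays used pH 7.4 Tris buffers, with the D3 buffer adding 120 mM NaCl, KCl and CaCl2.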

Series [3] addresses T3, hD4.2 receptor (Homo sapiens, UniProt P21917, DEL265-296).
T3 construct: purchased BioSignal Packard Inc., Montreal, Canada
T3 sequence (P21917 with tags, fused parts or gaps DEL265-296): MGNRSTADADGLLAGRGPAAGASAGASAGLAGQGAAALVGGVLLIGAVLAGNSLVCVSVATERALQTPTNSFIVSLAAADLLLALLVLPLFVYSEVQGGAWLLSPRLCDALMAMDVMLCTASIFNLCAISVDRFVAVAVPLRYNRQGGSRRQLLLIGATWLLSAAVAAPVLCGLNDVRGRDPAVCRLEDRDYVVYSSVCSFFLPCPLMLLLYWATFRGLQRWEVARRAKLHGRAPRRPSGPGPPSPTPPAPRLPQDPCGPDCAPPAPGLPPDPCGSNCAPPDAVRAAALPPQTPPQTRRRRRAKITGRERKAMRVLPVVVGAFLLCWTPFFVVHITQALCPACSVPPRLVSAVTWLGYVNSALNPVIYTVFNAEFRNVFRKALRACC
Briefly: Radioligand binding, dopamine D4 ([3H]YM-09151-2). To be noted: Table 4; [3H]YM-09151-2 0.06 nM; read-out: Binding affinity, IC50 (nM) D4. The procedure, abridged:
as §1

The test system of series [4] is rats. The series can be described thus: Methamphetamine-induced disruption of prepulse inhibition (PPI) in rats. It counts as in vivo, rat. How it is done: To assay antipsychotic properties of the compounds according to the invention, prepulse inhibition (PPI) of acoustic startle in animals was performed. Startle response was measured using SR-LAB startle chamber (San Diego Instruments, San Diego, USA). The animal enclosure was housed in a ventilated and sound-attenuated startle chamber with 60 dB ambient noise level, and consisted of a Plexiglas cylinder 40 mm in diameter on a platform, connected to a piezoelectric accelerometer which detects and transducer motion within the cylinder. Acoustic noise bursts were presented through a loudspeaker mounted 24 ? above the animal. […] Each startle session began with a 5-min acclimatization period in the chamber to 68 dB background noises. The test session consisting of the following four different trial types was carried for all experiments: a 40 ms broadband 120 dB burst (P; pulse alone trial), P preceded 100 ms earlier by a 20 ms noise burst 10 dB above background (pP; prepulse+pulse trial), a 40 ms broadband 78 dB burst (prepulse alone trial), and a no stimulus trial (background). Eight trials of each type were presented in a pseudorandom order (total32 trials) with an average interval of 15 sec. separating each trial. An extra 5 pulse-alone trials were presented at the beginning and end of each test session, but were not used in the calculation of PPI values. PPI was defined as the percent reduction in startle amplitude in the presence of prepulse compared to the amplitude in the absence of the prepulse using the following Math Equation 1. […] Differences were considered significant at P<0.05. Statistical analyses were conducted using SigmaStat software (SigmaStat, Jandel Co., San Rafael, Calif.). The data were expressed as means±SEM.

For series [5], the system named is rats. To be noted: water maze; cited from earlier work.
The conditions of series [6]: frontal cortex and dorsal hippocampus; cited from earlier work.
Series [7] concerns rat. Particulars: background literature; cited from earlier work.
The conditions of series [8]: background literature; cited from earlier work.

T2 sequence (P14416 whole entry): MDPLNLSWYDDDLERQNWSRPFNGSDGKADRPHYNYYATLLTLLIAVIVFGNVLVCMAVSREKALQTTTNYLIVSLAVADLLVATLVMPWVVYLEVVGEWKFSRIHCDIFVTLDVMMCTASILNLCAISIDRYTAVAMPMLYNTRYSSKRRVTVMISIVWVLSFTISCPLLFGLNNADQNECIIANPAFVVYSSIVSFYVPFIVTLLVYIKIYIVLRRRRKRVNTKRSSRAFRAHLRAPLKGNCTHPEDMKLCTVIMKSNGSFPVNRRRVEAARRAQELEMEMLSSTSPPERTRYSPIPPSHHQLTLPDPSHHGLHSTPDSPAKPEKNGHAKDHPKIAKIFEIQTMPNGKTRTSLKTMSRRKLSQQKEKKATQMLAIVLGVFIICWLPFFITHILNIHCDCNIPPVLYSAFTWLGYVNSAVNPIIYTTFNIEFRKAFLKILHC

For SB-271046 [reference compound], the IC50 in series [1] is 3960 nM; in series [2] it was above 10000 nM; in series [3] it was above 10000 nM. The “mean startle amplitude compared with methamphetamine group” value in series [4] (administered 30 min before methamphetamine) is listed as “no significant differences”. Further, in series [4] (rats, i.p., 30 min before methamphetamine (3, i.p.), P<0.05), the “disruption of PPI by methamphetamine, effect of pretreatment” value is recorded as “reversed significantly”. Also, in series [5], the “retention of a previously learned task” value is reported as “significant improvement”. Besides, the extracellular glutamate levels entry in series [6] was “increased extracellular glutamate levels in frontal cortex and dorsal hippocampus by several fold”. The anticonvulsant activity entry in series [7] is listed as “possess anticonvulsant activity”. Moreover, the oral bioavailability in series [8] is above 80%.
